Experimental findings from ChEMBL document CHEMBL1777740, “Toward self-adjuvanting subunit vaccines: model peptide and protein antigens incorporating covalently bound toll-like receptor-7 agonistic imidazoquinolines” (Bioorg Med Chem Lett, 2011) are described below.

Activity calls are given as the source filed them. The calls are words filed in the database; no cut-off is given here.

Holding throughout (format): functional, cell-based
In assay [1] the target is T1, Toll-like receptor 7 (Homo sapiens) (UniProt Q9NYK1).
T1 sequence (whole entry): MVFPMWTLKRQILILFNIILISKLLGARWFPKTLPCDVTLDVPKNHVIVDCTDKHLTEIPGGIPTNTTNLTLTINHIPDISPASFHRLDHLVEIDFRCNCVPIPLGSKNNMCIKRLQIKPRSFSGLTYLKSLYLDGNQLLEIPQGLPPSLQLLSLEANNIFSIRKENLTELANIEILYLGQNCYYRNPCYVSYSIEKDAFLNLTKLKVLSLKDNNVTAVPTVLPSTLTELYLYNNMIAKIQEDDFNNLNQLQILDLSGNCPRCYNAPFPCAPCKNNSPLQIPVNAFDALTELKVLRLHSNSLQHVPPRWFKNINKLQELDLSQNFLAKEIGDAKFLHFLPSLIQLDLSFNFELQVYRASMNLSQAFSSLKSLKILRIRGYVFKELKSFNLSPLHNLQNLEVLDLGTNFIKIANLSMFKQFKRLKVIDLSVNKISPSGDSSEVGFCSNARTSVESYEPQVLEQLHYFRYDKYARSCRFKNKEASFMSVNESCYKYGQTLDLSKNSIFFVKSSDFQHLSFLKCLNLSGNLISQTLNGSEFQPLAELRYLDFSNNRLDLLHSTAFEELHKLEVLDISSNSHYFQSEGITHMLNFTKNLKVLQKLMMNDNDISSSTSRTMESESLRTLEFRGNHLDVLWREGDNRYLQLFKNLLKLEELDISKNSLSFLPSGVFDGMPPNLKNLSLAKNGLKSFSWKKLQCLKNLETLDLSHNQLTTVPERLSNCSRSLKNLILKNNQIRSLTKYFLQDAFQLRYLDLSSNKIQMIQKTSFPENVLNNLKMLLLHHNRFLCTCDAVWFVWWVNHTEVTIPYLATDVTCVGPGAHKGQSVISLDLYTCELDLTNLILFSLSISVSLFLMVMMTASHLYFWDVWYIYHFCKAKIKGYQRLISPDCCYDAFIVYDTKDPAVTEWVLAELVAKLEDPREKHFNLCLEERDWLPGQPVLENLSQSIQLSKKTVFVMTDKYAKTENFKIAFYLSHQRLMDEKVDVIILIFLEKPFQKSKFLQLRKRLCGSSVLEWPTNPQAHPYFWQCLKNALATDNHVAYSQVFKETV
Put plainly: Agonist activity at human TLR7 transfected in HEK reporter cells assessed as NF-kappaB induction by specific secreted alkaline phosphatase gene assay. As to conditions: HEK293.

In assay [2] the test system is PBMC. Kind of assay: Immunostimulatory activity in human PBMC assessed as Th1-biased immunostimulatory activity measured as IFN-gamma release by ELISA. Background: An ELISA detects its analyte on a solid surface through an enzyme-linked reagent.
Assay [3] deals with PBMC. Put plainly: Immunostimulatory activity in human PBMC assessed as Th1-biased immunostimulatory activity measured as IL18 release by ELISA.
In assay [4] the test system is PBMC. Put plainly: Immunostimulatory activity in human PBMC assessed as Th1-biased immunostimulatory activity measured as IFNalpha release by ELISA.
The test system of assay [5] is PBMC. Put plainly: Immunostimulatory activity in human PBMC assessed as Th1-biased immunostimulatory activity measured as IL12 release by ELISA.

Regarding `CCCCc1nc2c(N)nc3ccccc3c2n1Cc1ccc(CNC(=O)CCN2C(=O)CC(SC[C@@H](NC(=O)CC[C@@H](N)C(=O)O)C(=O)NCC(=O)O)C2=O)cc1` (stereo not given in full), in assay [1], the result was inactive.
Consider `CCCCc1nc2c(N)nc3ccccc3c2n1Cc1ccc(CN)cc1`, for which the result in the assay on PBMC [2], in the assay with PBMC [3], in the assay with PBMC [4] and in the assay on PBMC [5] was Active.
